One assay deals with CYP2D6 (Homo sapiens, UniProt P10635). Description: biochemical.
The next assay has as its target CYP3A4 (Homo sapiens, UniProt P08684). The experiment in a line: biochemical.

Sequence of CYP3A4 (P08684 2-503): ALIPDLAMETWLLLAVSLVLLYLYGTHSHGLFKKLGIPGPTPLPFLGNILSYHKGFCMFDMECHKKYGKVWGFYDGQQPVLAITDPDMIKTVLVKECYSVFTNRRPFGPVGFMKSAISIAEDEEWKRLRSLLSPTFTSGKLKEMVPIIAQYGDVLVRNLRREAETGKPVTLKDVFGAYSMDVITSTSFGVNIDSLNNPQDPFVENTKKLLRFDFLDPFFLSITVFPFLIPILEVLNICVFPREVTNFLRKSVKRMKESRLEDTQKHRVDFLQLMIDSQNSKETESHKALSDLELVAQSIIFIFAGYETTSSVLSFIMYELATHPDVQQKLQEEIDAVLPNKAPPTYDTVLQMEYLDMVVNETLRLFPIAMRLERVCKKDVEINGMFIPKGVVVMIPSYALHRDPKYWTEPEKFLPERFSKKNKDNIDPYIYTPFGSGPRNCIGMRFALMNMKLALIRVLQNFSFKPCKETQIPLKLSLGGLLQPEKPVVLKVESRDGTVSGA
Sequence of CYP2D6 (P10635 whole entry): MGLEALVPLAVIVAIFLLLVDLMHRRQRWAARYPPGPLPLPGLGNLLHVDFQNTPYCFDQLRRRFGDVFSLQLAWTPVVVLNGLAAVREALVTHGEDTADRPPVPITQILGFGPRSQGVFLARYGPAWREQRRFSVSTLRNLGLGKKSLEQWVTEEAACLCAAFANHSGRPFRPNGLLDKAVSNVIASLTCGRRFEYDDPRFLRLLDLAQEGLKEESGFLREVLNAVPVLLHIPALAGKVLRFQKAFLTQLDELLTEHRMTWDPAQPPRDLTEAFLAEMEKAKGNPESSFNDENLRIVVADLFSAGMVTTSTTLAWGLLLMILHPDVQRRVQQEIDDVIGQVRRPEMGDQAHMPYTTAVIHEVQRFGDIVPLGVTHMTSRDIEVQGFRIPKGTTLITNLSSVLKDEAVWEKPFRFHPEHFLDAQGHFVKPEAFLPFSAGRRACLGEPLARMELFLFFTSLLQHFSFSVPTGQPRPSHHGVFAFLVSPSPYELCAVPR

What is called IC50 is the concentration that inhibits the measured activity by half. A high value points to a need for much substance. In the case of `CC12CC(O)C3CC1(O[C@@H]1O[C@H](CO)[C@@H](O)[C@H](O)[C@H]1O)C3(COC(=O)c1ccccc1)C(=O)O2` (stereo partly shown) [albiflorin], the IC50 at CYP2D6 is 14.4 mM; against CYP3A4 it was 11.4 mM.
The matching figures for `C[C@@]12C[C@@]3(O)O[C@@H](O1)[C@]1(COC(=O)c4ccccc4)[C@H]3C[C@@]12O[C@@H]1O[C@H](CO)[C@@H](O)[C@H](O)[C@H]1O` [paeoniflorin]: 12.7 mM and 4.79 mM.

The record behind these values is paper PMC4452296, “Comparison of Paeoniflorin and Albiflorin on Human CYP3A4 and CYP2D6” (Evidence-based Complementary and Alternative Medicine : eCAM, 2015).
